We go through one compound from US20190070170A1, “METHOD OF S[…]-1” (Macau University of Science and Technology, priority 2017, published 2019).

One assay concerns COX-2. The assay is described as follows: COX-2 protein expression in LPS-activated rat peritoneal macrophages (western blotting). It is filed as cell-based. The note with it: SIN or DEX 1 h, LPS 24 h. On the procedure: Sprague-Dawley (SD) rats from the University of Hong Kong were housed in cages with free access to food and water. Peritoneal macrophages of SD rats were isolated as described in Liu J. et al., Pharmacological research 2016, 111:303-315. Briefly, untreated rats were sacrificed and after laparotomy, about 50 ml cold sterile Hank's balanced salt solution (HBSS) was used to lavage the peritoneal cavity at twice, and then the peritoneal lavage fluid was collected and centrifuged at 1500 rpm for 10 min. The cell pellets was suspended at a density 1.5×10^6 cells/ml in pre-hearted DMEM medium with 10% heat-inactivated FBS, penicillin G (100 units/ml), streptomycin ([…]), and L-glutamine (2 mM), followed by seeding in 6-well plates at a density of 4.5×10^6 cells and incubation for 2 h. Then the medium were discarded to remove the non-adherent cells. The adherent cells were further washed for two times with pre-heated DMEM medium to remove floating cells. Next, cells were pre-treated with various concentration of SIN for 1 h, followed by stimulation with LPS (1 μg/ml).
Whole-cell and nuclear proteins were obtained using RIPA lysis buffer (CST, Boston, Mass., USA) and Nuclear and Cytoplasmic Extraction Reagents kit from Thermo Scientific (Asheville, N.C., USA), respectively. […] The levels of protein expression were measured using Odyssey v3.0 software from Li-COR (Lincoln, Nebr., USA).
(In western blotting, separated proteins are transferred to a membrane and probed.)

For the next assay, the system named is CEBPβ (mPGES-1 promoter). The assay is described as follows: ChIP assay: CEBPβ DNA binding to mPGES-1 promoter in LPS-stimulated rat peritoneal macrophages. The assay is classed as cell-based. The note with it: 640 μM SIN 1 h, 1 μg/ml LPS 30 min. The protocol: Rat peritoneal macrophages were pretreated with 640 μM SIN (1 h) and stimulated with 1 μg/ml LPS (30 min) before fixation at room temperature for 10 min with 1% formaldehyde. Fixation was terminated by adding glycine (to 0.125 M) with an additional incubation of 5 min, then the cells were washed twice with ice-cold PBS and harvested by scraping and centrifugation (1500 rpm for 10 min at 4° C.). Cell lysis was performed using ChIP kit from abcam (Cambridge, UK) according to the manufacturer's instructions. Briefly, cell pellets were resuspended in 1 ml Buffer B by pipetting up and down several times in a microcentrifuge tube and incubated at room temperature for 10 min. After centrifugation at 5000 rpm, the pellet was collected and resuspended in ice cold Buffer C and incubated on ice for 10 min, followed by centrifugation (5,000 rpm for 10 min at 4° C.). The pellet was mixed with 100 μl Buffer D containing protease inhibitors, incubated on ice for 10 min and sonicated for 30 cycles in a Bioruptor UCD-300 sonicator (power on high, 30 s on, 30 s off per cycle), yielding DNA fragments of 150-200 bps (the size of sonicated chromatin was checked through running 2% agarose gel). Beads were blocked overnight in PBS with 0.5% BSA and then added to the samples. […]

In assay [1] the test system is collagen-induced arthritis. The assay is described as follows: Collagen-II induced arthritis (CIA) in DBA/1 mice. The assay is classed as in vivo. The note with it: CIA DBA/1 mice; SIN 100 mg/kg i.p. On the procedure:
Female DBA/1 mice (8-9 weeks old) were purchased from Shanghai SiLaike (SLAC) Laboratory Animal Company (Shanghai, China) and fed with a chow diet and water at room temperature. Equal volume of complete Freuend's adjuvant (CFA) and Bovine Type II Collagen (CII) were mixed and emulsified using a homogenizer (13,000 rpm) on ice. On day 0, DBA/1 mice were immunized by injecting 50 μl of CII in CFA in the tail, approximately 2 cm from the base of the tail. After injection, on day 18, mice with one or more than one paw inflamed were chosen and randomly divided into model group, SIN (100 mg/kg, i.p.) treatment group and MTX (10 mg/kg/week, p.o) treatment group, the mice without immunization were used as normal control. On day 21, these chosen mice were boosted through injecting the same volume of CII in IFA same as the day 0 immunization procedure. The incidence of joint swelling in each group was recorded every two days since drug treatment. Paw thickness (at the ankle joints of the hind paws) of each mouse was obtained by using vernier caliper to record the severity of paw swelling.
Arthritis score of each paw was evaluated every two days during experiment with the following criteria: • 0: no evidence of erythema and swelling; • 1: erythema and mild swelling confirmed to the tarsals or ankle joint; • 2: erythema and mild swelling extending from the ankle to the tarsal joints; • 3: erythema and moderate swelling extending from the ankle to metatarsal joints; and • 4: erythema and severe swelling encompass the ankle, foot and digits, or ankylosis of the limb.
The score of each paw was summed for a score of 0-16 for each mouse. Mice were then sacrificed and hind paws were removed and freshly frozen in liquid nitrogen and stored at −80° C. until used.

Take `COC1=C[C@@H]2[C@@H]3Cc4ccc(OC)c(O)c4[C@]2(CCN3C)CC1=O` [SIN, sinomenine]: the COX-2 protein expression entry with COX-2 is listed as “did not suppress”. Besides, in the assay with CEBPβ (mPGES-1 promoter), the “DNA binding of CEBPβ to the mPGES-1 promoter” value was “inhibited”. In assay [1], the “arthritic scores (total of four paws)” value was “decreased”, the “average thickness of the inflamed hind paws” value was “decreased average thickness” and the “onset of joint swelling (incidence of arthritis)” value is reported as “delayed the onset of the joint swelling”.
